Bounds are passed on as bounds.

Drawing on ChEMBL document CHEMBL1156829 (Proc Natl Acad Sci U S A, 2008), this text covers EC50 and CC50 for 27 compounds.

Data set [1] deals with Plasmodium falciparum. In words: NOVARTIS: Inhibition of Plasmodium falciparum 3D7 (drug-susceptible) proliferation in erythrocyte-based infection assay. The settings on record: Plasmodium falciparum, 3D7. The class given is functional, organism-based.
The subject of data set [2] is Plasmodium falciparum. Kind of data set: NOVARTIS: Inhibition of Plasmodium falciparum W2 (drug-resistant) proliferation in erythrocyte-based infection assay. The class given is functional, organism-based. The settings on record: Plasmodium falciparum, W2; read-out: EC50.
Data set [3] can be described thus: NOVARTIS: Cytotoxicity against human hepatocellular carcinoma cell line (Huh7). Format: toxicity, cell-based, Huh-7. The following applies: Huh7 cells (hepatocellular carcinoma cell line).

For the compound `CC(C)(C)c1ccc(Oc2ccc(N3C(=O)C4CC=CCC4C3=O)cc2)cc1` (stereo unspecified), the EC50 (commonly the concentration giving half of the maximal effect) is > 1250 nM with Plasmodium falciparum [1] and > 1020 nM in the data set with Plasmodium falciparum [2]. Moreover, in data set [3], the CC50 (as a rule, the concentration that lowers cell viability or growth by half) is > 10000 nM.
The corresponding values for `CCCNC(=O)CCCCCSc1nc2ccccc2c(=O)n1-c1ccc(F)cc1` are 780 nM, > 1180 nM and > 11500 nM.
Turning to `CS(=O)(=O)N(CCc1ccccc1)CC(O)CN1CCC(CNC(=O)NC(c2ccccc2)c2ccccc2)CC1` (stereo unspecified), the figures for the EC50 in the data set with Plasmodium falciparum [1] and in the data set on Plasmodium falciparum [2] were > 1530 nM and 1020 nM, respectively. For the same compound, the CC50 in data set [3] was > 10000 nM.
With `CCCCOc1ccc(C(=O)Nc2c3c(nn2-c2ccc(C)cc2C)CSC3)cc1`, the EC50 was > 1520 nM with Plasmodium falciparum [1] and 1020 nM in the data set on Plasmodium falciparum [2]. In data set [3], the CC50 is > 10000 nM.
For `CCN(CC)C(=O)c1ccc2c(=O)n(Cc3cccc(Br)c3)c(=S)[nH]c2c1` the same measures were > 1250 nM, 1020 nM and > 10000 nM.
`CCCSc1nc(N)c(NC(=O)c2ccco2)c(=O)[nH]1`: the EC50 in the data set with Plasmodium falciparum [1] was > 361 nM; in the data set on Plasmodium falciparum [2] it was > 1020 nM. In addition, the CC50 in data set [3] was > 10000 nM.
As for `O=C1C(Sc2nnc[nH]2)=CC(=NS(=O)(=O)c2cccs2)c2ccccc21`, the EC50 in the data set on Plasmodium falciparum [1] came out at 1530 nM; in the data set with Plasmodium falciparum [2] it was 707 nM. In data set [3], this compound returned a CC50 of 6910 nM.
With `C=C(C)C(=O)OCCc1ccc(O)c(-n2nc3ccccc3n2)c1`, the EC50 in the data set on Plasmodium falciparum [1] is > 1250 nM; in the data set with Plasmodium falciparum [2], 1010 nM. In data set [3], the CC50 is > 10000 nM.
For `CC(=O)O[C@]1(C(C)=O)CCC2C3C=CC4=CC(=O)CC[C@]4(C)C3CC[C@@]21C` (stereo partly specified) the same measures were > 1210 nM, 1010 nM and > 10000 nM.
Take `c1ccc(-c2ccc(CNc3ccc4cn[nH]c4c3)cc2)cc1`: the results for the EC50 in the data set with Plasmodium falciparum [1] and in the data set with Plasmodium falciparum [2] were > 1250 nM and 1040 nM, respectively. Further, in data set [3], the CC50 is > 10000 nM.
For `CCCCNC(=O)c1ccc2c(c1)N=C(c1cccnc1)N(CCN1CCOCC1)C2` the same measures were > 1250 nM, > 1060 nM and > 10400 nM.
As for `CC(C)CC1C(c2ccc(Cl)cc2)C(C(=O)c2ccccc2)C2(C(=O)Nc3ccc(Br)cc32)N1C(=O)NCc1ccccc1` (stereo unspecified), the EC50 with Plasmodium falciparum [1] is 775 nM; in the data set on Plasmodium falciparum [2] it was > 1020 nM. Also, in data set [3], the CC50 is > 10000 nM.
Regarding `c1cc(NCc2ccc3c(c2)OCO3)n2ncc(-c3ccoc3)c2n1`, the EC50 in the data set with Plasmodium falciparum [1] was > 1250 nM; with Plasmodium falciparum [2], > 1020 nM. In data set [3], the CC50 is > 10000 nM.
For `CC1(C)Cc2c(sc(NC(=O)CCl)c2C#N)CO1`, the values for the EC50 in the data set with Plasmodium falciparum [1] and in the data set on Plasmodium falciparum [2] were 2040 nM and 2080 nM, respectively. In addition, in data set [3], it took 20500 nM to reach half-maximal cytotoxicity (CC50).
The corresponding values for `CCOC(=O)C1=C(C)N=c2sc(=Cc3ccc(I)o3)c(=O)n2C1c1ccccc1Cl` (stereo unspecified) are 1330 nM, 570 nM and > 5490 nM.
Turning to `COc1ccc(C2C(C(=O)Nc3cc(C)on3)c3ccccc3C(=O)N2C2CCCCC2)cc1` (stereo unspecified), the values for the EC50 in the data set on Plasmodium falciparum [1] and with Plasmodium falciparum [2] were 895 nM and > 1030 nM, respectively. Besides, the CC50 in data set [3] was > 10000 nM.
`Cc1ccc(-n2c(SCc3cccc(C)c3)nnc2C(Cc2ccccc2)NC(=O)NC(C)(C)C)cc1` (stereo unspecified): the EC50 with Plasmodium falciparum [1] amounted to 735 nM; with Plasmodium falciparum [2], 1010 nM. Moreover, the CC50 in data set [3] is > 10000 nM.
The corresponding values for `CCOc1cc(C(Nc2cc(C)ccn2)c2ccc3cccnc3c2O)ccc1OCc1ccccc1` (stereo unspecified) are > 1340 nM, 1030 nM and > 10000 nM.
For `CCC(CC)C(=O)N1CCOc2c(cc(-c3csc4ccccc34)cc2OCc2ccccn2)C1` the same measures were 1110 nM, 1010 nM and > 10000 nM.
On to `O=C(CC(=NNc1nc(NN=C(CC(=O)C(F)(F)F)C(F)(F)F)nc(N(c2ccccc2)c2ccccc2)n1)C(F)(F)F)C(F)(F)F`, for which the results for the EC50 in the data set with Plasmodium falciparum [1] and with Plasmodium falciparum [2] were 670 nM and 1010 nM, respectively. The CC50 in data set [3] was > 10000 nM.
Consider `COc1ccc(-c2csc3ncn(N)c(=O)c23)cc1`, for which the EC50 is > 1250 nM in the data set with Plasmodium falciparum [1] and > 1010 nM in the data set with Plasmodium falciparum [2]. The CC50 in data set [3] was > 10000 nM.
Regarding `ClC12CC3CC(C1)CC(n1nnc4ccccc41)(C3)C2`, the values for the EC50 in the data set on Plasmodium falciparum [1] and in the data set with Plasmodium falciparum [2] were > 1250 nM and > 1020 nM, respectively. The CC50 in data set [3] is > 10000 nM.
Regarding `CCCN(CC(=O)Nc1cc(C(C)(C)C)nn1-c1cccc(C)c1)C(=O)c1cccc([N+](=O)[O-])c1`, the figures for the EC50 in the data set with Plasmodium falciparum [1] and in the data set on Plasmodium falciparum [2] were > 1630 nM and 1010 nM, respectively. The CC50 in data set [3] is > 10000 nM.
Take `CC(=O)Oc1ccc(C(=O)C(C(C)=O)c2ccccc2)c(OC(C)=O)c1` (stereo unspecified): the values for the EC50 in the data set on Plasmodium falciparum [1] and with Plasmodium falciparum [2] were > 1390 nM and > 1020 nM, respectively. The CC50 in data set [3] was > 10000 nM.
`CCC(/C=C1\Sc2ccc(OC)cc2N1CCCS(=O)(=O)O)=C\c1sc2ccc(OC)cc2[n+]1CCCS(=O)(=O)O`: the EC50 in the data set on Plasmodium falciparum [1] stood at 473 nM; in the data set with Plasmodium falciparum [2], 1040 nM. Also, the CC50 in data set [3] came out at 10000 nM.
`COc1cccc(OC)c1C(=O)Nn1c(-c2cccc(C)c2)nc2ccccc2c1=O`: the values for the EC50 in the data set with Plasmodium falciparum [1] and with Plasmodium falciparum [2] were > 1250 nM and > 1030 nM, respectively. In addition, in data set [3], the CC50 is > 10000 nM.
As for `Cc1ccc(-c2cc(C)[n+](C)c(-c3ccc(C)cc3)c2)cc1`, the EC50 in the data set on Plasmodium falciparum [1] amounted to 313 nM; in the data set with Plasmodium falciparum [2], 763 nM. The compound further gave a CC50 in data set [3] of 7520 nM.
